Key:
SUMOylation = settings: read-out: IC50 in SUMOylation biochemical assays; among 780 assays; ref PubChem; cited from earlier work
RORγ = settings: read-out: IC50 in cellular assay of RORγ; among 780 assays; ref PubChem; cited from earlier work
[1] = tested on: SUMOylation in HCT-116 cells; assay: Western blot of SUMOylated proteins; type: cell-based, human; settings: 18 hours treatment
SUMO E1 WT = SUMO E1 WT (Homo sapiens, UniProt Q9UBT2); type: biochemical; settings: 0.25 μM E1 WT, 15 minutes at 37 °C
[2] = molecular target: SAE2 (SUMO E1) Cys residues (Homo sapiens, UniProt Q9UBT2); assay: LC-MS/MS analysis of pepsin digest of SUMO E1 inhibited by COH000; type: binding
SAE2 = SAE2 (Homo sapiens, UniProt Q9UBT2); assay: Western blot of SAE2 level and modification in cells with or without MG132; settings: MG132 2 hours prior, 2 hours of COH000 treatment
SUMO E1 in HCT-116 cells = SUMO E1 in HCT-116 cells (Homo sapiens, UniProt Q9UBT2); assay: Western blot of Ubc9•SUMO thioester formation in cells; settings: HCT-116 cell lysates
SAE2 in HCT116 cells [3] = molecular target: T1, SAE2 in HCT116 cells (Homo sapiens, UniProt Q9UBT2); assay: Cellular thermal shift assay; settings: 2 hours at 37°C, 42–56°C
[4] = tested on: primary colorectal tumor cells from PDX; assay: Primary colorectal tumor cells from patient-derived xenograft tissues; type: cell-based, human
SUMO E1 [5] = molecular target: T2, SUMO E1 (Homo sapiens, UniProt Q9UBT2); assay: Dialysis of inhibited SUMO E1 followed by SUMOylation assay; type: biochemical; settings: no enzyme activity up to 8 hours of dialysis
[6] = molecular target: SUMO activating enzyme (SAE, SUMO E1) (Homo sapiens, UniProt Q9UBT2); assay: AlphaScreen in vitro SUMOylation assay; type: biochemical
HCT-116 cells = assay: Apoptosis by flow cytometry; type: cell-based, human; settings: 10 μM for 20 h
[7] = molecular target: T3, ubiquitin activating enzyme in HCT-116 cells (Homo sapiens, UniProt P22314); assay: Western blot of ubiquitin•Ubc5 thioester formation in cells; type: cell-based; settings: HCT-116 cell lysates
T3 sequence (P22314 1-1058): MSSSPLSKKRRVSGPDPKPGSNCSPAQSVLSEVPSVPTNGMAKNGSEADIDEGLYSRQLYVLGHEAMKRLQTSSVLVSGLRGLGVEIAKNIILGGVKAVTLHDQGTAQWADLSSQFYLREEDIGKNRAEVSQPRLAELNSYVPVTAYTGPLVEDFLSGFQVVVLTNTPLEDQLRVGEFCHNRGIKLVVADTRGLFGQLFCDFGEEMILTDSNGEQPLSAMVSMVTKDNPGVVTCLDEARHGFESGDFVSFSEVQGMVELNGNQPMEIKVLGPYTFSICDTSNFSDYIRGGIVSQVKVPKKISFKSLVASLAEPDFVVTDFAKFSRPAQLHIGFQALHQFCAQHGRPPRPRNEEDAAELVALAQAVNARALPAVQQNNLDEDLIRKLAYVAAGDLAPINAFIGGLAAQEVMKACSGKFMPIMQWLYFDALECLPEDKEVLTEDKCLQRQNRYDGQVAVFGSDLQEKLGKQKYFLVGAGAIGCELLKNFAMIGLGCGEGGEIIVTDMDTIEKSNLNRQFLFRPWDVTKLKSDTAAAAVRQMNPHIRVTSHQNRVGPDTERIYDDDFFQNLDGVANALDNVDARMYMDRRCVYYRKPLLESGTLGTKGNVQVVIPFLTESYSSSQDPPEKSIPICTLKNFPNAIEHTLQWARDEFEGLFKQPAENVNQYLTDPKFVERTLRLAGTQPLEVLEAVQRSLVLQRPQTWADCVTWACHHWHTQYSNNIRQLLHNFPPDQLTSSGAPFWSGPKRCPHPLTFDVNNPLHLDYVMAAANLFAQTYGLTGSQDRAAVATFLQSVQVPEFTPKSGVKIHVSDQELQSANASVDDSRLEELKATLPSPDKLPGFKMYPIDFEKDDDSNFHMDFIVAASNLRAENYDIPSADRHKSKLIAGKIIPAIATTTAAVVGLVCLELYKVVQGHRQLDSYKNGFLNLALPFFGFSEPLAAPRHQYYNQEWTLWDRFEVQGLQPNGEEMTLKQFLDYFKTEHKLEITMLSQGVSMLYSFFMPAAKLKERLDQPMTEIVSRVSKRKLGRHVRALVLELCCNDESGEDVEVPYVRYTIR

SUMO E1 C30S mutant = molecular target: T4, SUMO E1 C30S mutant (Homo sapiens, UniProt Q9UBT2, C30S); type: biochemical; settings: 0.25 μM E1 C30S, 15 minutes at 37 °C
T4 sequence (Q9UBT2 1-640 C30S): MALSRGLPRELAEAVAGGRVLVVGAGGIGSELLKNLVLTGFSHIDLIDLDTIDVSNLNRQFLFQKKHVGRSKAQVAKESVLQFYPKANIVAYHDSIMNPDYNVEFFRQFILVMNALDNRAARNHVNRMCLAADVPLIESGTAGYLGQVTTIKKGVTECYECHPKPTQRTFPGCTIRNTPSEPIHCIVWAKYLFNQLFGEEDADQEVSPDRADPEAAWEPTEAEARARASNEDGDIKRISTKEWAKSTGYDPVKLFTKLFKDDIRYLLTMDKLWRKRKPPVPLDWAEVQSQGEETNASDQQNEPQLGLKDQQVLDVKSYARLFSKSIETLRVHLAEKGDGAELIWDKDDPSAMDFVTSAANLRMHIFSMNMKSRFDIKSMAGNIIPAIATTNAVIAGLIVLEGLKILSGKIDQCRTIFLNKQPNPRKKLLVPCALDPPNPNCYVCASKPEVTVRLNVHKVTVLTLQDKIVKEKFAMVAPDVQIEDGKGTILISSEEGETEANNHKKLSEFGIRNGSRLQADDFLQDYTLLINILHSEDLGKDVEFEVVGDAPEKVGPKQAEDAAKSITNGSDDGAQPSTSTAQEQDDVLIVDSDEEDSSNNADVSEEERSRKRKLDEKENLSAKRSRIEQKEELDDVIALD
T4 sequence (Q9UBE0 1-346 partner): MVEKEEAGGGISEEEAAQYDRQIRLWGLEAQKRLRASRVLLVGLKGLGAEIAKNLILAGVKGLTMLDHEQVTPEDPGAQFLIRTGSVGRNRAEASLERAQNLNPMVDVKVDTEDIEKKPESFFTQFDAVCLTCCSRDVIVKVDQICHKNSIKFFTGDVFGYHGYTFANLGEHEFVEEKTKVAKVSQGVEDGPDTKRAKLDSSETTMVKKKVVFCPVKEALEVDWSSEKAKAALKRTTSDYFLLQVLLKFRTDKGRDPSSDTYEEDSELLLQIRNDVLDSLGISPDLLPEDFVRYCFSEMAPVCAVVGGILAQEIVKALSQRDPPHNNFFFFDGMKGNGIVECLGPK

[8] = tested on: ubiquitylation (Ubc13-mediated poly-ubiquitylation); assay: Ubc13-mediated poly-ubiquitylation assay; type: biochemical, human; settings: same condition as SUMOylation assay
SAE2 in HCT116 cells [9] = molecular target: T1, SAE2 in HCT116 cells; assay: Pulse-chase assay of SAE2 degradation
SUMO E1 [10] = molecular target: T2, SUMO E1; assay: Differential scanning fluorimetry of SUMO E1; settings: SUMO E1 fully inhibited by COH000
[11] = tested on: miR-34b and c-Myc in lymphoma (Raji) and colorectal cancer (HCT116) cells; assay: RT-qPCR and Western blot of miR-34b and c-Myc in cancer cell lines; type: cell-based, human
[12] = tested on: cellular proteins of HCT116 cells; assay: Target profiling by pull-down with alkyne-containing probe; type: cell-based, human; settings: preliminary profiling, 2 μM
[13] = molecular target: T5, Nedd8 activating enzyme in HCT-116 cells (Homo sapiens, UniProt Q8TBC4); assay: Western blot of Nedd8•Ubc12 thioester formation in cells; type: cell-based; settings: HCT-116 cell lysates
T5 sequence (Q8TBC4 1-463): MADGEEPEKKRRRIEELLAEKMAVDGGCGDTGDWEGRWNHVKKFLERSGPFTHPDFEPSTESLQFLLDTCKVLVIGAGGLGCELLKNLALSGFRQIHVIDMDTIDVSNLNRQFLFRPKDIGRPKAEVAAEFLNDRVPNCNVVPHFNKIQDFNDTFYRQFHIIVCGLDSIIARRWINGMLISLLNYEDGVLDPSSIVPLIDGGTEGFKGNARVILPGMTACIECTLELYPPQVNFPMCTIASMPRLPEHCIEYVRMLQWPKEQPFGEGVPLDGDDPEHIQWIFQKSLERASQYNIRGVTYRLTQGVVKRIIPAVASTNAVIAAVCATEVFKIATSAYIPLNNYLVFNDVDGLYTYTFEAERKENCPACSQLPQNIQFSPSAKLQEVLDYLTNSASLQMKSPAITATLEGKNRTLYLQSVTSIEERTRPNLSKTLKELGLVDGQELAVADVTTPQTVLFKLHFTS
T5 sequence (Q13564 1-534 partner): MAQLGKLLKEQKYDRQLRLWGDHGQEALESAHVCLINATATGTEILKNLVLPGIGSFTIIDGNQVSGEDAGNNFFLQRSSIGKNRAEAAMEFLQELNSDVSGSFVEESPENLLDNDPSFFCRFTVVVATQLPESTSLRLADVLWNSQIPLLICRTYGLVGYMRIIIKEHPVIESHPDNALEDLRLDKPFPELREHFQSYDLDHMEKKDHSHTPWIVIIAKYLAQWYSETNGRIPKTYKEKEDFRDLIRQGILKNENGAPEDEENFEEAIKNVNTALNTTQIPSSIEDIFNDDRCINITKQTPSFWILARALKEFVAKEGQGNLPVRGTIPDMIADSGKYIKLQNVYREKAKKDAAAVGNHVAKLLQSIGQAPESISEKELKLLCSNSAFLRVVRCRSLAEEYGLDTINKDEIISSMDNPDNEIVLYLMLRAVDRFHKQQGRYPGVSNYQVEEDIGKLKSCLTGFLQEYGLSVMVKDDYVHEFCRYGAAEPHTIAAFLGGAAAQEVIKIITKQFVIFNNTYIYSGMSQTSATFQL

HCT-116 cell xenograft = assay: HCT116 xenograft in plasma esterase-deficient SCID mice; type: in vivo, mouse (Es1e/SCID)
[14] = molecular target: SUMO E1 (SAE) adenylation step (Homo sapiens, UniProt Q9UBT2); assay: ATP:PPi isotope exchange assay of the adenylation step
[15] = 10 mg/kg s.c. peritumoral once a day, 14 days

Sequence of SAE2 (SUMO E1) Cys residues (Q9UBT2 whole entry, one chain of several): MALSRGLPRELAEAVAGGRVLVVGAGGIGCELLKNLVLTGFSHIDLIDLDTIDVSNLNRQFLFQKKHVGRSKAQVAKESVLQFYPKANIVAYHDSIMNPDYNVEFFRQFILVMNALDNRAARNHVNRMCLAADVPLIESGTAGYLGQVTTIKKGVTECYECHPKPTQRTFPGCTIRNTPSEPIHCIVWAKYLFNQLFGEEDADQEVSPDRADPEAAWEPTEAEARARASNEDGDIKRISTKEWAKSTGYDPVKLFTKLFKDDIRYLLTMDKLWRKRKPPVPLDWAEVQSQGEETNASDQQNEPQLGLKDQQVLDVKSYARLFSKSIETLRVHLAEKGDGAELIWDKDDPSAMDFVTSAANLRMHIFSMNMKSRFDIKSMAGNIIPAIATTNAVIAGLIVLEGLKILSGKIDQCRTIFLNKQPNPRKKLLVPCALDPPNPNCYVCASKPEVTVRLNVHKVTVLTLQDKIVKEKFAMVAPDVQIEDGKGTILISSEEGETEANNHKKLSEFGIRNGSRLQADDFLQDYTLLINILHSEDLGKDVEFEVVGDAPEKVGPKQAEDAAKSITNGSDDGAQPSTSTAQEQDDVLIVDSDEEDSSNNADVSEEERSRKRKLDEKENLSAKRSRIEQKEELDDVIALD
T2 sequence (Q9UBT2 whole entry, one chain of several): as above
T1 sequence (Q9UBT2 whole entry, one chain of several): as above
Sequence of SUMO activating enzyme (SAE, SUMO E1) (Q9UBT2 whole entry, one chain of several): as above
Sequence of SUMO E1 (SAE) adenylation step (Q9UBT2 whole entry, one chain of several): as above
Sequence of SUMO E1 in HCT-116 cells (Q9UBT2 whole entry, one chain of several): as above
Sequence of SAE2 (Q9UBT2 whole entry, one chain of several): as above
Sequence of SUMO E1 WT (Q9UBT2 whole entry, one chain of several): as above

C=CCC(Nc1ccccc1)C12C=CC(O1)C(C(=O)OC)=C2C(=O)OC (stereo not drawn) [CID 9549553]
IC50 (SUMOylation): < 7 µM | IC50 (RORγ): < 7 µM

COC(=O)C1=C(C(=O)OC)C2([C@@H](Cc3ccc(C)cc3)Nc3ccccc3)C=CC1O2 (stereo partly drawn) [COH000, dimethyl 1-((R)-1-(phenylamino)-2-(p-tolyl)ethyl)7-oxabicyclo[2.2.1]hepta-2,5-diene-2,3-dicarboxylate]
SUMOylation in cells [1]: inhibited SUMOylation in a dose-dependent manner | inhibition of Ubc9•SUMO thioester formation, WT enzyme (SUMO E1 WT): inhibited by COH000 in a dose-dependent manner | modification of catalytic Cys173 of SAE2 ([2]; full inhibition by the compound): did not modify Cys173 | labeling of SAE2 Cys30 by intact mass ([2]; full inhibition, >10 fold excess for > 1 h): 100% | ubiquitylation of SAE2 in cells (SAE2): increased ubiquitylation of SAE2 | SUMO•Ubc9 thioester formation in cells (SUMO E1 in HCT-116 cells): inhibited only SUMO•Ubc9 thioester formation in a dose-dependent manner | thermal stability of SAE2 in cells (CETSA) (SAE2 in HCT116 cells [3]): increased the thermal stability of the enzyme in a dose dependent manner | cancer cell viability in primary colorectal PDX samples [4]: decreased cancer cell viability | apoptosis in primary colorectal PDX samples ([4]; 48 h treatment): induced apoptosis | c-Myc level, samples from Patient #2 and #3 ([4]; higher c-Myc levels): showed reduced c-Myc levels | c-Myc level, sample from Patient #1 ([4]; lowest c-Myc level among the three samples): did not show much further reduction of c-Myc level | reversibility of SUMO E1 inhibition (SUMO E1 [5]): irreversible | IC50 [6]: ~0.2 µM | selectivity for SUMOylation than ubiquitylation ([6]; SUMOylation vs Ubc13-mediated poly-ubiquitylation): over 500 fold | apoptosis (HCT-116 cells): consistently induced apoptosis | ubiquitin•Ubc5 thioester formation in cells [7]: did not inhibit the homologous enzymes catalyzing ubiquitylation or NEDDylation | inhibition of Ubc9•SUMO thioester formation, C30S mutant (SUMO E1 C30S mutant): the C30S mutant was not | concentration up to which ubiquitylation was not inhibited [8]: > 100 µM | degradation of SAE2 (pulse-chase) (SAE2 in HCT116 cells [9]): increased the degradation of SAE2 | thermal denaturation of SUMO E1, inhibitor bound vs unbound (SUMO E1 [10]): higher melting temperature | miR-34b expression ([11]; 2 days of treatment, RT-qPCR): increased the expression of miR-34b | c-Myc mRNA and protein levels ([11]; RT-qPCR and Western blot): reduced c-Myc mRNA and protein levels | other targets in cells (pull-down with alkyne-containing analog probe) [12]: does not have a large number of other targets | NEDD8•Ubc12 thioester formation in cells [13]: did not inhibit the homologous enzymes catalyzing ubiquitylation or NEDDylation | SAE2 levels in tumor tissues (IHC) (HCT-116 cell xenograft; [15]): significantly reduced SAE2 levels in tumor tissues | apoptosis in tumor tissue (TUNEL) (HCT-116 cell xenograft; [15]): increased apoptosis | c-Myc protein level in tumor (IHC) (HCT-116 cell xenograft; [15]): The c-Myc protein level was reduced | tumor growth (HCT-116 cell xenograft; [15]): significantly inhibited tumor growth | miR-34b level in tumor tissues (HCT-116 cell xenograft; COH000-treated vs vehicle-treated mice): miR-34b level is higher in tumor tissues | effect on SUMO adenylation (32PPi:ATP isotope exchange) ([14]; COH000 0–2 μM): inhibited SUMO adenylation | effect of increasing ATP or SUMO1 on the inhibition of adenylation ([14]; increasing concentrations of ATP or SUMO1): not overcome with increasing concentrations of ATP or SUMO1

Reference: paper PMC6524651 (Cell chemical biology, 2018)
